Patent US8067408B2, “Dual pharmacophores—PDE4-muscarinic antagonistics” (priority 2008, dated 2011)

Legend:
[1] = tested on: M1, M2 (w/Gqi5) and M3 ACh receptors stably expressed in CHO cells; test: Calcium mobilization (FLIPR) IC50 determination for antagonists of ACh induced muscarinic receptor activation; format: cell-based, human; conditions: EC80 concentration of ACh, active if IC50 of between 33 uM and 10 nM or less, receptor subtype (M1/M2/M3) not specified
Source text: Calcium Mobilization Studies (FLIPR)
Studies to determine the effectiveness of antagonists to cause blockade of functional intracellular calcium fluxes following agonist (ACh) treatment of cloned human receptors.
This system is used for characterizations of antagonist-receptor interactions using four distinct variations of the FLIPR methodology: (a) potency: IC50 determination, (b) potency: pA2 determination, (c) reversibility of antagonist-receptor interaction, or (d) confirmation of no functional agonist activity. • Cell Source The human M1-M3 receptors are cloned and stably expressed in Chinese Hamster Ovary (CHO) cells. The M2 receptors are co-expressed with the chimeric G protein, Gqi5. • Cell lines: M1 stable: Biocat #1044; M2+Gqi5 stable: Biocat #95663; M3 stable: Biocat #1049 • Method of Culture: CHO-M1, CHO-Gqi5-M2 and CHO-M3 cells are cultured to confluence at 37° C. in a humidified incubator with 5% CO2/95% air. CHO-M1 and CHO-M3 are cultured in Alpha MEM with nucleosides and L-glutamine and 10% fetal calf serum. […] The emitted fluorescence from all 96 wells is measured simultaneously using a cooled CCD camera. Data points are collected every second. Maximal change in emission from each well after simultaneous addition of agonist or compound to each of the 96 wells is then exported to an excel spreadsheet. […] Experimental Protocols: • Cell plating: A microtiter plate based calcium mobilization FLIPR (Fluorometric Imaging Plate Reader, Molecular Devices, Sunnyvale Calif., [Schroeder KS, Neagle, BD. FLIPR: a new instrument for accurate, high throughput optical screening. J. Biomol. Screen. 1996; 1:75.]) assay is used for the functional characterization of compounds against M1, M2 (w/Gqi5) and M3 ACh receptors stably expressed in CHO cells. […] The basal emission fluorescence is measured, then the cellular response to an EC80 concentration of ACh (3.3 nM against M1, 10 nM against M2 and 1.0 nM against M3) prepared in KRH assay buffer with 0.1% BSA (no gelatin), is monitored in FLIPR for 90 seconds and then 50 μL of 100 μM ATP (assay concentration of 20 μM) is added to check cell viability (H. M. Sarau et al, 1999. Mol. Pharmacol. 56, 657-663). […]

| Structure (SMILES) | melting point [°C] | IC50: compound pretreatment concentration which inhibits 50% of the ACh induced response [1] |
| --- | --- | --- |
| CCc1nc2c(cnn2CC)c(NC2CCOCC2)c1CNCc1cccc(C(=O)NCc2ccc(F)c(-c3cccc(CN4CCNCC4)c3)c2)c1 [Example 228, 3-[({[1,6-Diethyl-4-(tetrahydro-2H-pyran-4-ylamino)-1H-pyrazolo[3,4-b]pyridin-5-yl]methyl}amino)methyl]-N-{[6-fluoro-3′-(1-piperazinylmethyl)-3-biphenylyl]methyl}benzamide] |  | most active |
| CCc1nc2c(cnn2CC)c(NC2CCOCC2)c1CNC(=O)c1cccc(C(=O)NCc2cc(-c3cccc(CN4CCN(C)CC4)c3)ccc2OC)c1 [Example 271, N-{[1,6-Diethyl-4-(tetrahydro-2H-pyran-4-ylamino)-1H-pyrazolo[3,4-b]pyridin-5-yl]methyl}-N′-({4-(methyloxy)-3′-[(4-methyl-1-piperazinyl)methyl]-3-biphenylyl}methyl)-1,3-benzenedicarboxamide] |  | most active |
| CCc1nc2c(cnn2CC)c(NC2CCOCC2)c1CNC(=O)c1cccc(C(=O)NCc2ccc(F)c(-c3cccc(CNC4CCCC4)c3)c2)c1 [Example 307, N-({3′-[(Cyclopentylamino)methyl]-6-fluoro-3-biphenylyl}methyl)-N′-{[1,6-diethyl-4-(tetrahydro-2H-pyran-4-ylamino)-1H-pyrazolo[3,4-b]pyridin-5-yl]methyl}-1,3-benzenedicarboxamide] |  | most active |
| CCc1nc2c(cnn2CC)c(NC2CCOCC2)c1CNC(=O)c1cccc(C(=O)NCc2ccc(F)c(-c3cccc(CNc4ccncc4)c3)c2)c1 [Example 311, N-{[1,6-Diethyl-4-(tetrahydro-2H-pyran-4-ylamino)-1H-pyrazolo[3,4-b]pyridin-5-yl]methyl}-N′-({6-fluoro-3′-[(4-pyridinylamino)methyl]-3-biphenylyl}methyl)-1,3-benzenedicarboxamide] |  | most active |
| CCc1nc2c(cnn2CC)c(NC2CCOCC2)c1CNC(=O)c1cccc(C(=O)NCc2cc(Cl)cc(-c3cccc(CN4CCCN(C)CC4)c3)c2)c1 [Example 428, N-({5-Chloro-3′-[(4-methylhexahydro-1H-1,4-diazepin-1-yl)methyl]-3-biphenylyl}methyl)-N′-{[1,6-diethyl-4-(tetrahydro-2H-pyran-4-ylamino)-1H-pyrazolo[3,4-b]pyridin-5-yl]methyl}-1,3-benzenedicarboxamide] | 111 to 113 |  |
| CCc1nc2c(cnn2CC)c(NC2CCOCC2)c1CNC(=O)c1cccc(C(=O)NCc2cc(Cl)cc(-c3cccc(CN4C[C@@H](C)N[C@@H](C)C4)c3)c2)c1 [Example 429, N-[(5-Chloro-3′-{[(3R,5S)-3,5-dimethyl-1-piperazinyl]methyl}-3-biphenylyl)methyl]-N′-{[1,6-diethyl-4-(tetrahydro-2H-pyran-4-ylamino)-1H-pyrazolo[3,4-b]pyridin-5-yl]methyl}-1,3-benzenedicarboxamide] | 112 to 114 |  |

Further lines, with some results ahead:

| melting point [°C] | Structure (SMILES) | IC50: compound pretreatment concentration which inhibits 50% of the ACh induced response [1] |
| --- | --- | --- |
| 121 to 124 | CCc1nc2c(cnn2CC)c(NC2CCOCC2)c1CNC(=O)c1cccc(C(=O)NCc2cc(Cl)cc(-c3cccc(CN4CCCNCC4)c3)c2)c1 [Example 430, N-{[5-Chloro-3′-(hexahydro-1H-1,4-diazepin-1-ylmethyl)-3-biphenylyl]methyl}-N′-{[1,6-diethyl-4-(tetrahydro-2H-pyran-4-ylamino)-1H-pyrazolo[3,4-b]pyridin-5-yl]methyl}-1,3-benzenedicarboxamide] |  |
| 130 to 133 | CCc1nc2c(cnn2CC)c(NC2CCOCC2)c1CNC(=O)c1cccc(C(=O)NCc2cc(Cl)cc(-c3cccc(CN4C[C@@H]5C[C@H]4CN5)c3)c2)c1 [Example 431, N-({5-Chloro-3′-[(1S,4S)-2,5-diazabicyclo [2.2.1]hept-2-ylmethyl]-3-biphenylyl}methyl)-N′-{[1,6-diethyl-4-(tetrahydro-2H-pyran-4-ylamino)-1H-pyrazolo[3,4-b]pyridin-5-yl]methyl}-1,3-benzenedicarboxamide] |  |
